Results from PMC12684391, “Mechanistic insights into the monotherapy and combination potential of FEN1 inhibition in cancer therapy” (Nucleic Acids Research, 2025).

Biological target: T1, FEN1 (1-380) FL-6His (Homo sapiens, UniProt P39748)
T1 construct: FEN1(1-380)-6His was immobilized on a CM5 chip; made in house; host or cells: Escherichia coli
Assay: Differential scanning fluorimetry
Format: binding
Settings: compound 100 µM
Protocol: A volume of 100 nl of each compound at stock concentration of 10 mM was dispensed into a 384-well skirted PCR Plate (MicroAmp™ Optical plate) using a D300e digital dispenser (Tecan). Wells were normalized such that each contained 1% (v/v) DMSO and final compound concentration of 100 µM.
FEN1 (1-380) FL-6His protein (1.25×) and protein 5× thermal shift dye (Thermo Fisher Scientific) were prepared separately in freshly prepared differential scanning fluorimetry (DSF) assay buffer (20 mM Tris–HCl pH 7.5, 100 mM potassium chloride, 5 mM magnesium chloride, and 1 mM dithiothreitol). Eight microliters of 1.25× Fen1 (10 µM) was added to the appropriate well, plate sealed with aluminium sealing film (Axygen), and centrifuged at 500 × g for 1 min before incubating for 30 min at 4°C. After the incubation period, the plate was centrifuged again at 500 × g for 1 min and 2 µl of 5× protein thermal shift dye was added. […] Fluorescence was measured using a Quantstudio pro7.0 qPCR machine (Thermo Fisher Scientific) using internal optical ×1 filter (470 ± 15 nm) for excitation and m3 filter (586 ± 10 nm) for emission.
Each experiment was run in quadruplicates and melting temperatures (Tm) calculated as the inflection point of the derivative function using the protein thermal shift software (Thermo Fisher Scientific). DeltaTm was calculated using the Tm of protein with 1% DMSO as reference.

T1 sequence (P39748 whole entry): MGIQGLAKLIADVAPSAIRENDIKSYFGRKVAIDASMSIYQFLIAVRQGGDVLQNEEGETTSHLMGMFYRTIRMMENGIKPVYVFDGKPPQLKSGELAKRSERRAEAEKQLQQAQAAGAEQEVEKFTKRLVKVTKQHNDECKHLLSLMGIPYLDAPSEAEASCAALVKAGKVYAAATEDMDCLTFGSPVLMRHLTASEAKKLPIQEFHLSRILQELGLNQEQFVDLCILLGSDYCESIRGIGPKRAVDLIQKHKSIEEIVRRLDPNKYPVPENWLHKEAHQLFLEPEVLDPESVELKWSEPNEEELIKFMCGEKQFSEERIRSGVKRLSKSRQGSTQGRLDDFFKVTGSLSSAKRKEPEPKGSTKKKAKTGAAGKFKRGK

Thermal stabilization of FEN1 (DSF): thermally stabilized FEN1
SMILES: C[C@H](Oc1nn2c(c(O)c1=O)C(=O)N1CCOC[C@@H]1C2)c1ccc2ccc(Cl)cc2c1 [MSC778]
